Ends that are not written are not given here.
Experiments:
[1] = set-up: method as in earlier work; conditions: cited from earlier work
PvNMT [2] = target: T1, PvNMT (Plasmodium vivax, UniProt A5K1A2); assay: Fluorogenic NMT inhibition assay, PvNMT; format: biochemical; conditions: recombinant enzyme; mean of duplicate or triplicate experiments
T1 sequence (A5K1A2 1-410): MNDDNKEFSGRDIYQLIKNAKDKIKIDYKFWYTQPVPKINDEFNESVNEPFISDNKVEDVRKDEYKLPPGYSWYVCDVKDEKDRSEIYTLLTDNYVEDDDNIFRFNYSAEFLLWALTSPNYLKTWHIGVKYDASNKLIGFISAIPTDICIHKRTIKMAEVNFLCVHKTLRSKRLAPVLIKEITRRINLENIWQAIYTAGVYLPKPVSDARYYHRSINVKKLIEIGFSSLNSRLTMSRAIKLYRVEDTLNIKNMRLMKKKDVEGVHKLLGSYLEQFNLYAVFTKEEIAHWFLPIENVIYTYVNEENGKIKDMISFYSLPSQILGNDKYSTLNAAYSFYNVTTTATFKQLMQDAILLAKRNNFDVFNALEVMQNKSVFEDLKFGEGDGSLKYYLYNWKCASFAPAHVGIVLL
From the text: (§1) 2-Methylimidazolyl analogues were synthesized building on the hypothesis that 2-methylimidazole (pK a ∼ 7.9)[18] is a reasonable mimetic for N-terminal Gly in the peptide substrate (pK a ∼ 8.0).[19] To cover a range of basicity, imidazolyl (pK a ∼ 7.0) and amine analogues (pK a ∼ 10.0) were also synthesized, each exploring a range of chain lengths (n) (Table 1). To probe versatility at the C-terminus, primary amides, carboxylic acids, 2-cyclohexylethyl and 2-(1-cyclohexenyl)ethyl amides were incorporated. Using a previously reported fluorogenic assay,[20] inhibitors were tested against the parasitic enzymes and HsNMT1 in order to explore their selectivity against a relevant host enzyme. […] Further reduction of the chain length (11 and 12, n = 8 and 7, respectively) led to loss of detectable activity against Plasmodium NMTs and significant loss of activity against LdNMT and HsNMT1.

HsNMT1 = target: T2, HsNMT1 (Homo sapiens, UniProt P30419); assay: Fluorogenic NMT inhibition assay, HsNMT1; format: biochemical, H. sapiens; conditions: mean of duplicate or triplicate experiments
T2 sequence (P30419 1-496): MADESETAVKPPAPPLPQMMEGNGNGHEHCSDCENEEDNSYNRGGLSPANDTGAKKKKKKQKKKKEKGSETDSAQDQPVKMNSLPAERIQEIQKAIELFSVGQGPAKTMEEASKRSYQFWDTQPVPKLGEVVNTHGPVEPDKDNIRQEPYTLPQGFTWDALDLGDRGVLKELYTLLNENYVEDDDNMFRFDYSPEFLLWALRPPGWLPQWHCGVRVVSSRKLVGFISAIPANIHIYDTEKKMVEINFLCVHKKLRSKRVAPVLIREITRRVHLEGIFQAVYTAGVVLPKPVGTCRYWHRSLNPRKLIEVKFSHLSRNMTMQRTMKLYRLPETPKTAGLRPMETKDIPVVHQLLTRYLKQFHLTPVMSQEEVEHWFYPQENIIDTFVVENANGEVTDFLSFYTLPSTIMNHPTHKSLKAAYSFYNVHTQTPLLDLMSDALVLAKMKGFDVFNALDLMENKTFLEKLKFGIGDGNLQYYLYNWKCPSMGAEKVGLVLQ
From the text: 2-Methylimidazolyl analogues were synthesized building on the hypothesis that 2-methylimidazole (pK a ∼ 7.9)[18] is a reasonable mimetic for N-terminal Gly in the peptide substrate (pK a ∼ 8.0).[19] To cover a range of basicity, imidazolyl (pK a ∼ 7.0) and amine analogues (pK a ∼ 10.0) were also synthesized, each exploring a range of chain lengths (n) (Table 1). To probe versatility at the C-terminus, primary amides, carboxylic acids, 2-cyclohexylethyl and 2-(1-cyclohexenyl)ethyl amides were incorporated. Using a previously reported fluorogenic assay,[20] inhibitors were tested against the parasitic enzymes and HsNMT1 in order to explore their selectivity against a relevant host enzyme.

PfNMT = target: T3, PfNMT (Plasmodium falciparum, UniProt Q9U419); assay: Fluorogenic NMT inhibition assay, PfNMT; format: biochemical; conditions: recombinant enzyme; mean of duplicate or triplicate experiments
T3 sequence (Q9U419 1-410): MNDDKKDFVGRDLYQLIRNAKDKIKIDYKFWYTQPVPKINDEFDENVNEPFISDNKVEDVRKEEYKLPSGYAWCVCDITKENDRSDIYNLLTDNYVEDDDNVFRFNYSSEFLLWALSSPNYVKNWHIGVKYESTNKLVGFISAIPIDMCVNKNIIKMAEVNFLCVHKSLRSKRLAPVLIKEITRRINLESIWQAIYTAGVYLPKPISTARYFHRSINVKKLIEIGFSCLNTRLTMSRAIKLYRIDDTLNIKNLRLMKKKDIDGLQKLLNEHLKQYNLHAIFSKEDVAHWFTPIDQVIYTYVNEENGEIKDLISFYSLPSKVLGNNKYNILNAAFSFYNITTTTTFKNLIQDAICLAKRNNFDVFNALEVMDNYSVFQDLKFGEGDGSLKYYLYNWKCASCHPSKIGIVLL
From the text: as §1

Leishmania NMT = assay: Substrate characteristics in Leishmania NMT; format: biochemical
Protocol: (§2) Unexpectedly, the electron maps indicated a mixture of ligand structures such that ∼20% of the electron density represents a N-myristoylated 10 product complex with the CoA by-product in LmNMT (Fig. 2D). This is the only structural evidence for a product complex in any N-myristoyltransferase, and captures and supports the proposed mechanism of action of NMT just prior to regeneration of the active enzyme. Kinetic experiments were performed to study 10 both as a potential substrate and as an NMT inhibitor. […] The N-myristoylation of 10 observed above therefore presumably occurs within the crystal where all reagents are present at high effective concentrations, and turnover is blocked by limited egress of products.
To probe the degree to which 10 acts as a true peptidomimetic, we investigated the potential to switch from inhibitor to a peptidomimetic substrate. […] In native NMT substrates, N-terminal Gly is preferred to the exclusion of all other residues, with relatively non-sterically demanding residues such as alanine. […]
(§3) [Substrate] (µM) [S b[Substrate] (µM) tt ]
Hs pp60src(2-9) Compound 10 Compound 27 Compound 28
Figure S4: Substrate characteristics of H. sapiens p60src(2-16), compound 10 and modified
inhibitors 27 and 28 in Leishmania NMT.

PvNMT [3] = target: T1, PvNMT; assay: Kinetic assay and Lineweaver-Burk plot, competitiveness of compound 10; format: biochemical
Protocol: as §2, with “products. […]” for “products.”
3. Kinetic studies of Compound 10. […]
1 / [Sub s tr ate] Rate / [Su b s tr ate]
No inhibitor 0.6 μM 1.2 μM 2.4 μM
Figure S3: Kinetic assay and Lineweaver-Burk plot studying the competitiveness of
as §3

LdNMT = assay: Fluorogenic NMT inhibition assay, LdNMT; format: biochemical, L. donovani
From the text: as §1

CaNMT = test system: CaNMT; set-up: method as in PMID 7783114; conditions: read-out: KM as CaNMT substrate; cited from earlier work

**Q.** With `Cc1ncc[nH]1` [2-methylimidazole] as the compound, how does the pKa [1] read?
**A.** ~7.9

**Q.** With `NCCCCCCCCCC(=O)N[C@@H](CO)C(=O)N[C@@H](CCCCN)C(=O)NCCC1CCCCC1` [Compound 10] as the compound, how does the IC50 (PvNMT [2]) read?
**A.** 680 ± 80 nM

**Q.** What about the IC50 (HsNMT1) of the same compound?
**A.** 60 ± 3 nM

**Q.** What about the IC50 (PfNMT) of the same compound?
**A.** 24300 ± 3400 nM

**Q.** What about the KM as substrate (Leishmania NMT; Leishmania NMT) of the same compound?
**A.** Not measurable

**Q.** What about the Vmax as substrate (Leishmania NMT; Leishmania NMT) of the same compound?
**A.** Not measurable

**Q.** And the substrate activity (Leishmania NMT; compound 10 tested up to 40 μM)?
**A.** no substrate characteristics were detected

**Q.** What about the “Vmax of substrate in presence of inhibitor” value (shortened to “Vmax … of inhibitor”) (PvNMT [3]; 0.6 μM compound 10) of the same compound?
**A.** 20701.0 ± 1047.4

**Q.** And the “Vmax … of inhibitor” value (PvNMT [3]; 1.2 μM compound 10)?
**A.** 19563.0 ± 1520.6

**Q.** And the “Vmax … of inhibitor” value (PvNMT [3]; 2.4 μM compound 10)?
**A.** 21120.3 ± 1651.4

**Q.** What about the mode of inhibition (PvNMT [3]; kinetic studies, Fig. S3) of the same compound?
**A.** peptide-competitive inhibitor

**Q.** What about the IC50 (LdNMT; recombinant enzyme, mean of duplicate or triplicate experiments) of the same compound?
**A.** 24 ± 3 nM

**Q.** And the “potency against LdNMT, fold higher than 2 (1H-imidazol-1-yl)” value (LdNMT; relative to compound 2)?
**A.** over 400 fold

**Q.** And the “potency against LdNMT, fold higher than 6 (2-methyl-1H-imidazol-1-yl)” value (LdNMT; relative to compound 6)?
**A.** > 20 fold

**Q.** Which Km (CaNMT) does the source give for “GLYASKLS-NH2 [CaNMT octapeptide substrate]” here?
**A.** 0.6 µM
